Where “and” joins values, the source holds several entries; their conditions need not be identical. Identical values can stand only once. Like-named read-outs stand apart in the source and are kept apart here. Marks after values point to notes of the source that are not given here.
Key:
[1] = tested on: T. brucei Squib 427; test: microbe, parasite or virus in culture; type: cell-based, Trypanosoma brucei brucei
Method: (§1) Drug susceptibility tests with Lister 427WT, TbAT1-KO[48], B48[26] and ISMR1[27] were performed using an assay based on the viability indicator dye resazurin in 96-well plates, each well containing 2 × 10^4 cells. The plates were incubated for 48 h with a doubling dilution series of the test compounds in HMI-9/fetal bovine serum at 37 °C/5% CO2 (23 dilutions starting at 100 µM, except for the pentamidine control (50 µM)), after which resazurin (20 µL of 125 µg mL^−1 resazurin sodium salt solution was added to each well (containing 200 µL of cells and test compound)) was added to each well and the plates incubated for another 24 h. Fluorescence was determined using a FLUOstar Optima (BMG Labtech, Durham, NC) and the results fitted to a sigmoid curve with variable slope using Prism 5.0 or Prism 7.04 (GraphPad, San Diego, CA).
(§2) Susceptibility assays with T. brucei Squib 427[49] or T. b. rhodesiense STIB-900[50] were performed under similar conditions as above, but using 10 concentrations of a 4-fold compound dilution series starting at 64 µM. Trypanosoma brucei Squib 427 was seeded at 1.5 × 10^4 parasites/well and T. b. rhodesiense at 4 × 10^3 parasites per well, followed by the addition of resazurin (final concentration of 10 µg mL^−1) after 24 h (T. brucei) or 6 h (T. b. rhodesiense).

[2] = tested on: T. b. rhodesiense STIB-900; test: microbe, parasite or virus in culture; type: cell-based, Trypanosoma brucei rhodesiense
Method: as §1, §2

[3] = Cytotoxicity on MRC-5 fibroblasts (resazurin); type: cell-based, human; settings: human, MRC-5SV2 human embryonic lung fibroblasts, source data; read-out: MRC-5 EC50, single measurements
Method: (§3) Cytotoxicity assays were performed on MRC-5SV2 (Sigma-Aldrich/ECACC, catalogue number 84100401) human embryonic lung fibroblasts, which were cultured in minimum essential medium with Earle’s salt medium, supplemented with L-glutamine, NaHCO3 and 5% inactivated foetal calf serum. All cultures and assays were conducted at 37 °C with 5% CO2. Ten microliters of the aqueous compound dilutions were added to 190 µL of MRC-5SV2 (3 × 10^4 cells mL^−1). Cell growth was compared to untreated control wells (100% cell growth) and medium control wells (0% cell growth). After a 3-day incubation, cell viability was assessed fluorimetrically after the addition of 50 μL resazurin per well (final concentration of 10 µg mL^−1). After 4 h at 37 °C, fluorescence was measured (λex 550 nm, λem 590 nm). The results were expressed as percentage reduction in cell growth/viability compared to control wells and an EC50 was determined.

[4] = tested on: MRC-5SV2 human embryonic lung fibroblasts; test: Cytotoxicity on MRC-5 fibroblasts (resazurin); type: cell-based; settings: source data; read-out: MRC-5 EC50, single measurements
Method: as §3

[5] = tested on: T. b. brucei Lister 427WT; test: Drug susceptibility test (resazurin), Lister 427WT; type: cell-based, Trypanosoma brucei brucei
Summary of the method: (§4)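 Trypanosomes (2 × 10^4 cells/well) exposed 48 h at 37 °C/5% CO2 in HMI-9/FBS to 23-step doubling dilutions from 100 µM, then resazurin added for a further 24 h. Fluorescence fitted to a variable-slope sigmoid curve.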

[6] = tested on: ISMR1: isometamidium-resistant T. brucei cell line; test: microbe, parasite or virus in culture; type: cell-based, Trypanosoma brucei brucei
Summary of the method: as §4

[7] = tested on: TbAT1-KO: T. brucei cell line lacking the TbAT1(P2) transporter gene; test: microbe, parasite or virus in culture; type: cell-based, Trypanosoma brucei brucei
Summary of the method: as §4

[8] = tested on: B48: pentamidine, diminazene and melaminophenyl arsenical resistant T. brucei line; test: microbe, parasite or virus in culture; type: cell-based, Trypanosoma brucei brucei
[9] = target: T1, P2 transporter (TbAT1) (Trypanosoma brucei brucei, UniProt Q9Y0I0); test: cell-based
Method: Non-specific association of radiolabel with the cell pellet was determined using an identical incubation in the presence of saturating (1 mM) unlabelled adenosine.

[10] = tested on: Lister 427WT T. b. brucei; test: Adenosine deaminase susceptibility (drug sensitivity with/without 2 µM deoxycoformycin); type: cell-based, Trypanosoma brucei brucei; settings: Trypanosoma brucei, Lister 427WT, mean ± SEM, n=3
Method: as §1, with “CA). […]” for “CA).”
Adenosine deaminase susceptibility
in the presence or absence of 2 µM 2’-deoxycoformycin. […]

[11] = tested on: T. brucei BSF s427 wildtype cells; test: Growth assays of T. brucei (trypanocidal/trypanostatic effect); type: cell-based, Trypanosoma brucei; settings: experiment 1
Method: Growth assays of T. brucei
To test the effect of the novel adenosine analogues on the growth of T. brucei BSF, s427 wildtype cells were seeded at 1×10^5 cells mL-1 in 5 mL of HMI-9 medium with 10% FBS and treated with compounds […]
cells were also incubated in drug-free medium under the same conditions. 2 μM of 2’-deoxycoformycin were added to all cultures to avoid any potential effect of serum adenosine deaminase on the activity of test compounds and cordycepin.1
Cells were manually counted in Neubauer chambers at 0, 2, 4, 6, 8, 12, 24, 36 and 48 h after addition of […]
the drugs. […]
After 6 and 12 h after addition of drugs, approximately 2×10^6 cells were harvested from each group and applied to glass slides pre-treated with poly-L-lysine, left to settle for 5 min and fixed with 4% formaldehyde for 4 min. The formaldehyde was neutralised by addition of 100 mM glycine (20 min).
Cells were washed once with PBS and blocked for 1 h with 1% BSA/0.2% Tween-20 in PBS. Cells were […]

[12] = target: P1 transporter; parameters: method as in PMID 10570043; settings: ref [29]; cited from earlier work
[13] = target: T1, P2 transporter (TbAT1); parameters: method as in PMID 24283924; settings: ref [18]; cited from earlier work
[14] = resistance factor vs Lister 427WT

T1 sequence (Q9Y0I0 entry or part of it): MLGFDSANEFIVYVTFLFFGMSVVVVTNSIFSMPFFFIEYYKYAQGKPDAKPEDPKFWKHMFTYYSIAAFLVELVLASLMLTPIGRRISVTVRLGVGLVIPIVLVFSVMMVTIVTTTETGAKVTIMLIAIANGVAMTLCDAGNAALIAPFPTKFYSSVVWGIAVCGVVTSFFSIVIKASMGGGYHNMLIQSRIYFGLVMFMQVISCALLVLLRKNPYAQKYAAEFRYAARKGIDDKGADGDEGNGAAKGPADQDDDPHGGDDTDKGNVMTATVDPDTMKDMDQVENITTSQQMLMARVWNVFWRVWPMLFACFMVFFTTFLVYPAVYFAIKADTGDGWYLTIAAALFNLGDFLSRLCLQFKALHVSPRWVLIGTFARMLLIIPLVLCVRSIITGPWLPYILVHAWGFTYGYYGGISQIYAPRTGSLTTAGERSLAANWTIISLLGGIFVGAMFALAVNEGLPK

Nc1ncnc2c1c(Br)cn2[C@H]1C[C@H](O)[C@@H](CO)O1 [Compound 12, 7-Br-2′-deoxy-TUB]
EC50 ([1]; Trypanosoma brucei, Alamar blue cell viability assay, mean and SEM, read-out: T. b. brucei EC50): 460 ± 80 nM
EC50 ([1]; Trypanosoma brucei, source data, read-out: T. brucei brucei EC50, Average): 460 nM
EC50 ([1]; Trypanosoma brucei, source data, read-out: T. brucei brucei EC50, single measurements): 382 nM
SI (MRC/T.b. brucei) ([1]; selectivity index): 13
EC50 ([1]; source data, read-out: T. brucei brucei EC50, single measurements): 533 nM
EC50 ([2]; Trypanosoma brucei, RHODESIENSE, Alamar blue cell viability assay, mean and SEM, read-out: T. b. rhodesiense EC50): 120 ± 10 nM
EC50 ([2]; Trypanosoma brucei, RHODESIENSE, source data, read-out: T. brucei rhodesiense EC50, Average): 120 nM
EC50 ([2]; Trypanosoma brucei, RHODESIENSE, source data, read-out: T. brucei rhodesiense EC50, single measurements): 116 nM
SI (MRC/T.b. rhodesiense) ([2]; selectivity index): 50
EC50 ([2]; source data, read-out: T. brucei rhodesiense EC50, single measurements): 126 nM
EC50 at 3 day [3]: 6830 nM
EC50 [4]: 5370 nM
EC50 ([5]; Trypanosoma brucei, mean and SEM, n = 3, read-out: Lister 427 EC50): 310 ± 63 nM
EC50 ([5]; Trypanosoma brucei, source data, read-out: s427 EC50, AVG): 313 nM
EC50 ([5]; Trypanosoma brucei, source data, read-out: s427 EC50, single determinations): 376 nM
EC50 ([5]; source data, read-out: s427 EC50, single determinations): 251 nM and 355 nM
EC50 ([6]; Trypanosoma brucei, mean and SEM, n = 3, read-out: ISMR1 EC50): 920 ± 120 nM
EC50 ([6]; Trypanosoma brucei, source data, read-out: ISMR1 EC50, AVG): 919 nM
EC50 ([6]; Trypanosoma brucei, source data, read-out: ISMR1 EC50, single determinations): 1150 nM
RF (ISMR1) [6, 14]: 2.93**
EC50 ([6]; source data, read-out: ISMR1 EC50, single determinations): 731 nM and 876 nM
EC50 ([7]; Trypanosoma brucei, read-out: TbAT1-KO EC50, AVG, source data): 758 nM
EC50 ([7]; Trypanosoma brucei, read-out: TbAT1-KO EC50, mean and SEM, n = 3): 760 ± 180 nM
EC50 ([7]; Trypanosoma brucei, read-out: TbAT1-KO EC50, single determinations, source data): 940 nM
EC50 ([7]; read-out: TbAT1-KO EC50, single determinations, source data): 576 nM and 850 nM
RF (TbAT1-KO) ([7]; resistance factor: ratio of EC50 of resistant and Lister 427WT): 2.37*
EC50 ([8]; Trypanosoma brucei, mean and SEM, n = 3, read-out: B48 EC50): 830 ± 160 nM
EC50 ([8]; Trypanosoma brucei, source data, read-out: B48 EC50, AVG): 827 nM
EC50 ([8]; Trypanosoma brucei, source data, read-out: B48 EC50, single determinations): 990 nM
RF (B48) [8, 14]: 2.64**
EC50 ([8]; source data, read-out: B48 EC50, single determinations): 664 nM and 844 nM

Nc1ncnc2c1ncn2[C@@H]1O[C@H](CO)C[C@H]1O [Compound 3, cordycepin, reference compound]
P2 Ki, fold lower than the Km value for adenosine [9]: roughly 3 fold
energy advantage at P2 versus adenosine [9]: roughly 3 kJ mol^−1
P2 transporter ΔG^0 ([9]; Gibbs free energy from −RT ln(Ki)): -9.2 kcal/mol
P2 transporter δ(ΔG^0) ([9]; in comparison to adenosine): -0.645 kcal/mol
EC50 ([10]; absence of deoxycoformycin, read-out: T. b. brucei EC50, -Dcf): 440 ± 110 nM
EC50 ([10]; presence of 2 µM deoxycoformycin, read-out: T. b. brucei EC50, +Dcf): 3.6 ± 1 nM
AVG of cells/mL ([11]; 2xEC50, 2 h): 122500 cells/mL
Cells/mL ([11]; 2xEC50, 2 h): 130000 Cells/mL and 115000 Cells/mL
Counts ([11]; 2xEC50, 2 h): 52 and 46
AVG of cells/mL ([11]; 2xEC50, 4 h): 122500 cells/mL
Cells/mL ([11]; 2xEC50, 4 h): 110000 Cells/mL and 135000 Cells/mL
Counts ([11]; 2xEC50, 4 h): 44 and 54
AVG of cells/mL ([11]; 2xEC50, 6 h): 161250 cells/mL
Cells/mL ([11]; 2xEC50, 6 h): 150000 Cells/mL and 172500 Cells/mL
Counts ([11]; 2xEC50, 6 h): 60 and 69
AVG of cells/mL ([11]; 2xEC50, 8 h): 187500 cells/mL
Cells/mL ([11]; 2xEC50, 8 h): 207500 Cells/mL and 167500 Cells/mL
Counts ([11]; 2xEC50, 8 h): 83 and 67
AVG of cells/mL ([11]; 2xEC50, 12 h): 195000 cells/mL
Counts ([11]; 2xEC50, 12 h): 75 and 81
AVG of cells/mL ([11]; 2xEC50, 24 h): 106250 cells/mL
Cells/mL ([11]; 2xEC50, 24 h): 82500 Cells/mL and 130000 Cells/mL
Counts ([11]; 2xEC50, 24 h): 33 and 52
AVG of cells/mL ([11]; 2xEC50, 36 h): 81250 cells/mL
Counts ([11]; 2xEC50, 36 h): 29 and 36
AVG of cells/mL ([11]; 2xEC50, 48 h): 105000 cells/mL
Cells/mL ([11]; 2xEC50, 48 h): 105000 Cells/mL
Counts ([11]; 2xEC50, 48 h): 42
AVG of cells/mL ([11]; 5xEC50, 2 h): 145000 cells/mL
Cells/mL ([11]; 5xEC50, 2 h): 177500 Cells/mL and 112500 Cells/mL
Counts ([11]; 5xEC50, 2 h): 71 and 45
AVG of cells/mL ([11]; 5xEC50, 4 h): 118750 cells/mL
Cells/mL ([11]; 5xEC50, 4 h): 107500 Cells/mL and 130000 Cells/mL
Counts ([11]; 5xEC50, 4 h): 43 and 52
AVG of cells/mL ([11]; 5xEC50, 6 h): 130000 cells/mL
Cells/mL ([11]; 5xEC50, 6 h): 130000 Cells/mL
Counts ([11]; 5xEC50, 6 h): 52
AVG of cells/mL ([11]; 5xEC50, 8 h): 172500 cells/mL
Cells/mL ([11]; 5xEC50, 8 h): 177500 Cells/mL and 167500 Cells/mL
Counts ([11]; 5xEC50, 8 h): 71 and 67
AVG of cells/mL ([11]; 5xEC50, 12 h): 156250 cells/mL
Counts ([11]; 5xEC50, 12 h): 60 and 65
AVG of cells/mL ([11]; 5xEC50, 24 h): 33750 cells/mL
Cells/mL ([11]; 5xEC50, 24 h): 35000 Cells/mL and 32500 Cells/mL
Counts ([11]; 5xEC50, 24 h): 14 and 13
AVG of cells/mL ([11]; 5xEC50, 36 h): 31250 cells/mL
Cells/mL ([11]; 5xEC50, 36 h): 32500 Cells/mL and 30000 Cells/mL
Counts ([11]; 5xEC50, 36 h): 13 and 12
AVG of cells/mL ([11]; 5xEC50, 48 h): 15000 cells/mL
Cells/mL ([11]; 5xEC50, 48 h): 15000 Cells/mL
Counts ([11]; 5xEC50, 48 h): 6
Ki [12]: 210000 ± 48000 nM
Ki [13]: 180 ± 20 nM

From PMC6895180 (Nature Communications, 2019)
